Test results published in patent US12201610B2, “Compositions comprising aticaprant” (Janssen Pharmaceuticals, Inc., priority 2022, dated 2025).

Tested on: subjects with MDD
Test: MADRS total score, adjunctive aticaprant vs placebo in MDD (Example 6)
Conditions: for MADRS LSMeans difference estimate, supplementary analysis of data collected prior to 15 Mar. 2020 (COVID-19): MMRM
[1] = fITT Analysis Set, High anhedonia, Treatment Week 1
[2] = fITT Analysis Set, High anhedonia, Treatment Week 3
[3] = fITT Analysis Set, High anhedonia, Treatment Week 4
[4] = fITT Analysis Set, High anhedonia, Treatment Week 5
[5] = fITT Analysis Set, High anhedonia, Treatment Week 6
[6] = fITT Analysis Set, Low anhedonia, Treatment Week 1
[7] = fITT Analysis Set, Low anhedonia, Treatment Week 3
[8] = fITT Analysis Set, Low anhedonia, Treatment Week 4
[9] = fITT Analysis Set, Low anhedonia, Treatment Week 5
[10] = fITT Analysis Set, Low anhedonia, Treatment Week 6
[11] = fITT, Treatment Week 1, 10 mg adjunctive to SSRI/SNRI
[12] = fITT, Treatment Week 3, 10 mg adjunctive to SSRI/SNRI
[13] = fITT, Treatment Week 4, 10 mg adjunctive to SSRI/SNRI
[14] = fITT, Treatment Week 5, 10 mg adjunctive to SSRI/SNRI
[15] = fITT, Treatment Week 6, 10 mg adjunctive to SSRI/SNRI
[16] = fITT, Treatment Week 6, high anhedonia level
[17] = fITT, Treatment Week 6, low anhedonia level

Cc1cc(C)cc(C2CCCN2Cc2ccc(Oc3ccc(C(N)=O)cc3F)cc2)c1 (stereo not shown) [aticaprant, 3-fluoro-4-4-2-(3,5-dimethylphenyl)pyrrolidin-1-yl-methylphenoxybenzamide]
MADRS Total Score Mean Change to Placebo (SD pooled) (eITT, Treatment Week 6, 10 mg adjunctive to SSRI/SNRI): −2.0 (8.49)
MADRS total score change, difference between aticaprant and placebo (eITT, Treatment Week 6, high anhedonia level (SHAPS total score ≥38 at treatment baseline)): −3.4
MADRS total score observed effect size (eITT, Treatment Week 6, high anhedonia level (SHAPS ≥38)): 0.38
MADRS total score observed effect size (eITT, Treatment Week 6, low anhedonia level (20≤ SHAPS <38)): 0.11
MADRS total score change, difference between aticaprant and placebo (eITT, Treatment Week 6, low anhedonia level (20≤ baseline SHAPS total score <38)): −0.9
MADRS Total Score Effect size (eITT, Treatment Week 6, vs placebo, negative favors aticaprant): 0.23
MADRS Total Score Effect size (eITT, Treatment Week 6, vs placebo, negative favors aticaprant, listed as Aticaprant): −0.23
MADRS LSMeans difference estimate, supplementary analysis of data collected prior to 15 Mar. 2020 (COVID-19) (eITT, vs placebo): −3.0
MADRS Total Score Effect size [1]: −0.45
MADRS Total Score Mean Change from Baseline (SD) [1]: −4.4 (5.04)
MADRS Total Score Mean Change to Placebo (SD pooled) [1]: −2.0 (4.38)
MADRS Total Score Effect size [2]: −0.54
MADRS Total Score Mean Change from Baseline (SD) [2]: −6.9 (6.66)
MADRS Total Score Mean Change to Placebo (SD pooled) [2]: −3.8 (6.94)
MADRS Total Score Effect size [3]: −0.50
MADRS Total Score Mean Change from Baseline (SD) [3]: −8.6 (7.32)
MADRS Total Score Mean Change to Placebo (SD pooled) [3]: −3.8 (7.56)
MADRS Total Score Effect size [4]: −0.51
MADRS Total Score Mean Change from Baseline (SD) [4]: −10.2 (8.04)
MADRS Total Score Mean Change to Placebo (SD pooled) [4]: −4.0 (7.87)
MADRS Total Score Effect size [5]: −0.51
MADRS Total Score Mean Change from Baseline (SD) [5]: −11.3 (8.69)
MADRS Total Score Mean Change to Placebo (SD pooled) [5]: −4.6 (9.03)
MADRS Total Score Effect size [6]: −0.24
MADRS Total Score Mean Change from Baseline (SD) [6]: −2.4 (4.59)
MADRS Total Score Mean Change to Placebo (SD pooled) [6]: −1.0 (4.39)
MADRS Total Score Effect size [7]: −0.08
MADRS Total Score Mean Change from Baseline (SD) [7]: −4.1 (6.67)
MADRS Total Score Mean Change to Placebo (SD pooled) [7]: −0.5 (6.37)
MADRS Total Score Effect size [8]: −0.23
MADRS Total Score Mean Change from Baseline (SD) [8]: −6.4 (6.77)
MADRS Total Score Mean Change to Placebo (SD pooled) [8]: −1.5 (6.65)
MADRS Total Score Effect size [9]: −0.10
MADRS Total Score Mean Change from Baseline (SD) [9]: −7.3 (6.90)
MADRS Total Score Mean Change to Placebo (SD pooled) [9]: −0.7 (6.86)
MADRS Total Score Effect size [10]: −0.29
MADRS Total Score Mean Change from Baseline (SD) [10]: −8.8 (7.48)
MADRS Total Score Mean Change to Placebo (SD pooled) [10]: −2.3 (7.80)
MADRS Total Score Change from Baseline Mean (SD) [11]: −3.1
MADRS Total Score Mean (SD) [11]: 21.7
MADRS Total Score Mean Change to Placebo (SD pooled) [11]: −1.3 (4.43)
MADRS Total Score Effect size (fITT, Treatment Week 1, vs placebo, negative favors aticaprant): −0.29
MADRS Total Score Change from Baseline Mean (SD) [12]: −5.1
MADRS Total Score Mean (SD) [12]: 20.0
MADRS Total Score Mean Change to Placebo (SD pooled) [12]: −1.7 (6.62)
MADRS Total Score Effect size (fITT, Treatment Week 3, vs placebo, negative favors aticaprant): −0.26
MADRS Total Score Change from Baseline Mean (SD) [13]: −7.2
MADRS Total Score Mean (SD) [13]: 17.9
MADRS Total Score Mean Change to Placebo (SD pooled) [13]: −2.3 (7.02)
MADRS Total Score Effect size (fITT, Treatment Week 4, vs placebo, negative favors aticaprant): −0.32
MADRS Total Score Change from Baseline Mean (SD) [14]: −8.3
MADRS Total Score Mean (SD) [14]: 16.7
MADRS Total Score Mean Change to Placebo (SD pooled) [14]: −1.9 (7.31)
MADRS Total Score Effect size (fITT, Treatment Week 5, vs placebo, negative favors aticaprant): −0.26
percentage of subjects with MADRS remission (MADRS total score ≤10) (fITT, Treatment Week 6): 31.2%
percentage of subjects with ≥30% improvement in MADRS total score (fITT, Treatment Week 6): 61.8%
percentage of subjects with ≥50% improvement in MADRS total score (fITT, Treatment Week 6): 38.2%
MADRS Total Score Mean (SD) [15]: 15.9
MADRS Total Score Mean Change to Placebo (SD pooled) [15]: −3.0 (8.31)
MADRS total score change, difference between aticaprant and placebo [16]: −4.6
MADRS total score observed effect size [16]: 0.51
MADRS total score change, difference between aticaprant and placebo [17]: −2.3
MADRS total score observed effect size [17]: 0.29
MADRS Total Score Effect size (fITT, Treatment Week 6, vs placebo, negative favors aticaprant): 0.36
MADRS Total Score Effect size (fITT, Treatment Week 6, vs placebo, negative favors aticaprant, listed as Aticaprant): −0.36
onset of significant treatment effect favoring aticaprant (MADRS least squares mean change, FIG. 10-B) (fITT, vs placebo): 3 week
MADRS LSMeans difference estimate, supplementary analysis of data collected prior to 15 Mar. 2020 (COVID-19) (fITT, vs placebo): −3.4
